{"source": "patent US20240300959A1", "about": "“BALASUBRAMIDE DERIVATIVE AND USE THEREOF IN PREPARATION OF MEDICINE FOR TREATING ACUTE LUNG INJURY” (Guangdong Pharmaceutical University, priority 2023, published 2024)", "key": {"[1]": {"tested_on": "inflammation genes in RAW264.7 macrophages stimulated by lipopolysaccharide", "assay": "qPCR expression level of inflammation genes in LPS-stimulated RAW264.7 macrophages", "assay_type": "cell-based, mice", "conditions": "RAW264.7, LPS", "method": "RAW264.7 cells were inoculated into a 24-well plate at a density of 5×10^5 per well. When the cell density was 70%-80%, the RAW264.7 cells were pretreated with (+)3C-20 (5 μM, 10 μM, 20 μM). After 3 h, lipopolysaccharide (LPS, 100 ng/mL) was added into all wells for action for 2 h except for a control group. A supernatant was discarded, and the cells at the bottom of the plate were fully lysed with Trizol (Nanjing Vazyme, R401-01). RNA was extracted according to an RNA extraction instruction, and subjected to reverse transcription to obtain cDNA, followed by qPCR according to an amplification method at 95° C. for a total of 5 min (at 95° C. for 10 s, and at 60° C. for 30 s) in 40 cycles, and finally statistical calculation was performed by ΔCt."}, "[2]": {"tested_on": "mice with sepsis and lung injury caused by intraperitoneal injection of lipopolysaccharide", "assay": "Acute lung injury caused by sepsis (intraperitoneal injection of lipopolysaccharide)", "assay_type": "in vivo, ICR mice", "conditions": "for Content of TNF-α in serum (% of Model) / Area percentage of alveolar cells (%): 6 h after i.p. LPS; for Area percentage of alveolar cells (%): H&E lung sections; for Change multiple of IL-1β / Change multiple of IL-6 / Change multiple of TNF-α / Change multiple of iNOS: lung tissue RT-PCR; for Lung index (%): 6 h after i.p. LPS 10 mg/kg; for Body weight (Day 1) / Body weight (Day 2) / Body weight (Day 3): i.p. LPS sepsis model, in g (unit assumed)", "method": "Administration and grouping of animals: Male ICR mice were used as experimental animals, which were randomly divided into a control group, a model group, a positive administration group and administration groups according to the body weight. The control group and the model group were administered with a solvent by intraperitoneal injection (the solvent was prepared from DMSO, Kolliphor HS15 and Saline at a ratio of 1:2:7), the positive administration group was administered with 5 mg/kg dexamethasone (DEX) by intraperitoneal injection, and the administration groups were administered with (+)3C-20 at a concentration of 10 mg/kg and 50 mg/kg, respectively, by intraperitoneal injection. The dexamethasone and the (+)3C-20 were dissolved in the above solvent and were clear and transparent. The administration was continued for 3 days. 2 h after the last administration, all the other groups were administered with LPS (10 mg/kg) by intraperitoneal injection while the control group was administered with an equal volume of normal saline by intraperitoneal injection. Body weight and lung index: The mice were weighed and randomly divided on day 1 and continuously weighed for 3 days before administration, and growth conditions of the mice were measured by statistics. The mice were administered with LPS by intraperitoneal injection 2 h after administration on day 3, then the mice were dissected 6 h later, and the lungs were taken, weighed and recorded.\nOn day 3, 6 h after the intraperitoneal injection of LPS, whole blood was collected from eye sockets and then subjected to centrifugation to prepare serum, and the serum was frozen at −80° C. The lungs were subjected to perfusion with PBS and fixed by paraformaldehyde, and the fixed lungs were stained with hematoxylin-eosin (H&E) after dehydration, paraffin embedding and sectioning. The serum was tested by a commercial TNF-α ELISA kit. Histopathological results and data statistics are shown in FIG. 7-1, FIG. 7-2 and Table 7.\nA small amount of frozen lung tissues were taken and fully ground, and the expression of inflammation related genes in the lung tissues was detected by an RT-PCR technology according to an operation instruction of an RNA extraction kit."}}}
{"smiles": "O=C(CCc1ccc(C(F)(F)F)cc1)O[C@@H]1C(=O)NCCc2c([nH]c3ccccc23)[C@H]1c1ccc(C(F)(F)F)cc1", "note": "[(+)-3C-20]", "values": [{"measurement": "Change multiple of COX-2", "setting": "[1]; 5 μM", "result": "4.20 ± 0.16"}, {"measurement": "Change multiple of IL-1β", "setting": "[1]; 5 μM", "result": "62.02 ± 7.52"}, {"measurement": "Change multiple of IL-6", "setting": "[1]; 5 μM", "result": "23.17 ± 0.9"}, {"measurement": "Change multiple of TNF-α", "setting": "[1]; 5 μM", "result": "11.03 ± 0.87"}, {"measurement": "Change multiple of COX-2", "setting": "[1]; 10 μM", "result": "3.95 ± 0.9"}, {"measurement": "Change multiple of IL-1β", "setting": "[1]; 10 μM", "result": "28.51 ± 0.4"}, {"measurement": "Change multiple of IL-6", "setting": "[1]; 10 μM", "result": "16.09 ± 0.24"}, {"measurement": "Change multiple of TNF-α", "setting": "[1]; 10 μM", "result": "6.00 ± 1.96"}, {"measurement": "Change multiple of COX-2", "setting": "[1]; 20 μM", "result": "3.49 ± 0.0^8"}, {"measurement": "Change multiple of IL-1β", "setting": "[1]; 20 μM", "result": "12.58 ± 1.72"}, {"measurement": "Change multiple of IL-6", "setting": "[1]; 20 μM", "result": "6.53 ± 0.31"}, {"measurement": "Change multiple of TNF-α", "setting": "[1]; 20 μM", "result": "4.49 ± 0.81"}, {"measurement": "effective dose for anti-inflammatory activity (inhibition of expression of inflammation genes)", "setting": "[1]", "result": "5 μM, 10 μM or 20 μM"}, {"measurement": "Content of TNF-α in serum (% of Model)", "setting": "[2]; 10 mg/kg i.p.", "result": "78.38 ± 11.32 ^ % of Model"}, {"measurement": "Area percentage of alveolar cells (%)", "setting": "[2]; 10 mg/kg i.p.", "result": "38.68 ± 3.73", "unit": "%"}, {"measurement": "Change multiple of IL-1β", "setting": "[2]; 10 mg/kg i.p., i.p. LPS", "result": "9.68 ± 0.67"}, {"measurement": "Change multiple of IL-6", "setting": "[2]; 10 mg/kg i.p., i.p. LPS", "result": "47.5 ± 7.38"}, {"measurement": "Change multiple of TNF-α", "setting": "[2]; 10 mg/kg i.p., i.p. LPS", "result": "10.58 ± 1.72"}, {"measurement": "Change multiple of iNOS", "setting": "[2]; 10 mg/kg i.p., i.p. LPS", "result": "12.44 ± 1.28 ^"}, {"measurement": "Lung index (%)", "setting": "[2]; 10 mg/kg intraperitoneal 3 days", "result": "0.714 ± 0.02 ^ %"}, {"measurement": "Body weight (Day 1)", "setting": "[2]; 10 mg/kg intraperitoneal", "result": "25.42 ± 1.1"}, {"measurement": "Body weight (Day 2)", "setting": "[2]; 10 mg/kg intraperitoneal", "result": "25.46 ± 1.2"}, {"measurement": "Body weight (Day 3)", "setting": "[2]; 10 mg/kg intraperitoneal", "result": "25.77 ± 1.03"}, {"measurement": "Content of TNF-α in serum (% of Model)", "setting": "[2]; 50 mg/kg i.p.", "result": "55.06 ± 5.96 % of Model"}, {"measurement": "Area percentage of alveolar cells (%)", "setting": "[2]; 50 mg/kg i.p.", "result": "30.43 ± 2.41", "unit": "%"}, {"measurement": "Change multiple of IL-1β", "setting": "[2]; 50 mg/kg i.p., i.p. LPS", "result": "10.13 ± 1.72"}, {"measurement": "Change multiple of IL-6", "setting": "[2]; 50 mg/kg i.p., i.p. LPS", "result": "13.73 ± 1.56"}, {"measurement": "Change multiple of TNF-α", "setting": "[2]; 50 mg/kg i.p., i.p. LPS", "result": "5.55 ± 0.86"}, {"measurement": "Change multiple of iNOS", "setting": "[2]; 50 mg/kg i.p., i.p. LPS", "result": "5.42 ± 1.02"}, {"measurement": "Lung index (%)", "setting": "[2]; 50 mg/kg intraperitoneal 3 days", "result": "0.672 ± 0.014", "unit": "%"}, {"measurement": "Body weight (Day 1)", "setting": "[2]; 50 mg/kg intraperitoneal", "result": "25.34 ± 0.57"}, {"measurement": "Body weight (Day 2)", "setting": "[2]; 50 mg/kg intraperitoneal", "result": "26.16 ± 1.22"}, {"measurement": "Body weight (Day 3)", "setting": "[2]; 50 mg/kg intraperitoneal", "result": "27.01 ± 1.08"}, {"measurement": "pathological lung injury compared with the model group, in words", "setting": "[2]; 50 mg/kg, i.p. LPS", "result": "obviously relieving pathological lung injury"}]}
